# Patent US20120238532A1, “TREATMENT OF HUMAN OSTEOSARCOMA” (CEDARS-SINAI MEDICAL CENTER, priority 2009, published 2012)
# How the values were obtained:
# SAOS-2 cells = experiment: Morphological changes (crystal violet staining), SAOS-2; assay type: cell-based, human
# Procedure: FIG. 2. (A) Graphical representation of the effect of CuB on MG-63 and SAOS-2 cells. Cells were exposed to CuB at their ED50 (70 nM for MG-63 and 50 nM for SAOS-2 cells). Time-dependent antiproliferative activity of CuB on MG-63 and SAOS-2 cells measured by pulse-exposure experiments. Cells were exposed to CuB for 2, 9, or 20 hours, washed extensively, and cultured in the absence of CuB for an additional 24, 48, and 72 hours. Cell growth was measured by MTT assay. Measurements were repeated in triplicates. Data represent mean±SD. Asterisks (**) represent p<0.001 vs DMSO control by t-test. (B) Morphological changes of MG-63 and SAOS-2 cells after exposure to cucurbitacin B. Cells with normal morphology (top) were compared to rounded cells (middle) and multinucleated cells (bottom). […] Representative cells are shown. 400×; scale bar=50 μm. (C) Graphical representation of G2/M cell cycle arrest after 20 hours of exposure to cucurbitacin B. Cells were stained with propidium iodide (PI) and analyzed by FACS. (D) Graphical representation of apoptosis after 72 hours of exposure to cucurbitacin B. Cells were stained with PI and Annexin V-FITC, and analyzed by FACS.
# ERK protein = biological target: T1, ERK protein (Homo sapiens, UniProt P28482); experiment: DARTS analysis, ERK; assay type: binding; conditions: MG-63 lysates; data not shown
# T1 construct: confluent MG-63 cells were harvested and lysed with lysis buffer; endogenous in cells; host or cells: MG-63 whole-cell lysate
# phospho-c-Jun and c-Fos = experiment: Western blotting, phospho-c-Jun and c-Fos; assay type: cell-based, human; conditions: MG-63 and SAOS-2 cells
# Procedure: (§1) Changes in protein level by CuB were checked by Western blotting. […] After 2, 9, and 20 hours of exposure, cells were harvested and immediately lysed with RIPA buffer (Millipore—Upstate, Temecula, Calif.) supplemented with protease inhibitor cocktail (Roche, San Francisco, Calif.), 0.5 mM PMSF (Roche), and 50 mM NaF (Sigma). After 20 minutes of incubation on ice, protein concentrations were measured by Bradford assay with Bio Rad protein assay solution (Bio-Rad, Hercules, Calif.) and samples were adjusted to the same protein concentration. Samples were mixed with 2× Laemmli sample buffer (Bio-Rad) with 5% β-mercaptoethanol (Sigma) and incubated at 95° C. for 10 min to denature the protein. After brief incubation on ice, proteins were separated by SDS-PAGE, transferred to nitrocellulose membrane (Sigma), and blotted with antibodies from either Cell Signaling Technology (Danvers, Mass.) or Santa Cruz Biotechnology (Santa Cruz, Calif.). Target proteins were visualized by Supersignal West Dura Substrate (Thermo-Pierce, Rockford, Ill.). GAPDH protein was used as a loading control.
# [1] = test system: cyclin A and cyclin-dependent kinase inhibitor 1 (p21^WAF1); experiment: Western blotting, cyclin A and p21^WAF1; assay type: cell-based, human; conditions: MG-63 and SAOS-2 cells
# Procedure: as §1
# cyclin D1 = experiment: Western blotting, cyclin D1; assay type: cell-based, human; conditions: MG-63 cells
# Procedure: as §1
# [2] = test system: poly ADP-ribose polymerase (PARP); experiment: Western blotting, PARP cleavage; assay type: cell-based, human; conditions: MG-63 and SAOS-2 cells
# Procedure: as §1
# [3] = Body weight and side-effects during xenograft treatment; assay type: in vivo, mice; conditions: week 1, returned to normal in subsequent weeks
# Procedure: All animal experiments strictly followed the guidelines of Cedars-Sinai Medical Center and the National Institute of Health (NIH). Female nu/nu athymic nude mice (5-6 weeks old; average weight 21 g; specific pathogen-free) from Harlan Laboratories (Indianapolis, Ind.) were maintained in pathogen-free condition with sterilized chow and water. 5×10^6 cells of MG-63 cells were mixed with 200 μl of Matrigel solution (BD Biosciences) per injection, and the mixture was injected subcutaneously on the upper flanks of nude mice. After 24 hours, tumor size was measured, and any outliers were ruled out by one-way analysis of variance (ANOVA) test. […] The dose of LD-MTX was the murine equivalent of the human dose of LD-MTX. The conversion was made using dose translation formula by Reagan-Shaw et al., (15). […] Body weights were monitored every 2 days. Tumor size was measured every 2 days, and the tumor volume was calculated using the following formula: A (length)×B (width)×C (height)×0.5236 (16). The experiment was stopped at day 35, and all mice were sacrificed. The presence of metastatic spread was examined macroscopically at the time of autopsy followed by histological examination. At least two tumors from each group were snap-frozen in liquid nitrogen for Western blotting.
# mTOR = mTOR (Homo sapiens, UniProt P42345); experiment: DARTS analysis, mTOR; assay type: binding; design: endogenous in cells; host or cells: MG-63 whole-cell lysate; conditions: MG-63 whole-cell lysates; 10, 100, or 1000 nM, 30 min
# Procedure: Direct interaction of CuB and mTOR was assessed by DARTS as described in the original article with some modifications (14). Briefly, confluent MG-63 cells were harvested and lysed with lysis buffer (1% Triton X-100, 150 mM NaCl. 100 mM Tris-HCl, pH 7.4, 1 mM EDTA, and 1 mM EGTA, pH 8.0) supplemented with protease inhibitor (Roche, San Francisco, Calif.), 0.2 mM PMSF (Roche), and 0.2 mM Na3VO4 (Sigma). Cell lysates were incubated with 0.1 volume of increasing concentrations (10-1000 nM) of either DMSO or CuB at room temperature for 30 min. Lysates were then proteolyzed with thermolysin (Sigma) at room temperature for 3 min. Reaction was stopped by adding 0.5 M EDTA solution and 2× Laemmli sample buffer (Bio-Rad, Hercules, Calif.) with 5% β-mercaptoethanol (Sigma). Western blotting was performed as described below.
# T1 sequence (P28482 2-360 limits assumed): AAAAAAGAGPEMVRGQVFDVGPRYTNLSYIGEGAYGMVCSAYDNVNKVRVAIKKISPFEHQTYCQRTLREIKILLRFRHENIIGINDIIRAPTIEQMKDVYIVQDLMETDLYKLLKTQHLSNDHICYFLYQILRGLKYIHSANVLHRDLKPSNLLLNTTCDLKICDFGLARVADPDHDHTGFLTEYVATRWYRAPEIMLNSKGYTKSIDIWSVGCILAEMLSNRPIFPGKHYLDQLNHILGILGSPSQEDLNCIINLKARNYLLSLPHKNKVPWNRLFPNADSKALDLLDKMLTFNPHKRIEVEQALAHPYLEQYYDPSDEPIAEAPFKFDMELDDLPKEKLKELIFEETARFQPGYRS
compound,measurement,setting,value
"CC(=O)OC(C)(C)/C=C/C(=O)[C@](C)(O)[C@H]1[C@H](O)C[C@@]2(C)[C@@H]3CC=C4[C@H](C[C@H](O)C(=O)C4(C)C)[C@]3(C)C(=O)C[C@]12C [CuB, cucurbitacin B]",morphological changes,SAOS-2 cells; 2 hour exposure,Rapid loss of pseudopodia and rounding
same,morphological changes,SAOS-2 cells; 9 hour-exposure,multinuclearity which was not reversed by CuB removal
same,protection of ERK protein (DARTS),ERK protein,could not find any evidence that the ERK protein was protected by CuB
same,phospho-c-Jun level and c-Fos expression,phospho-c-Jun and c-Fos,Decreased level of phospho-c-Jun and subsequent decrease in c-Fos expression
same,protein levels of cyclin A and p21^WAF1,[1],increased the protein levels of cyclin A and cyclin-dependent kinase inhibitor 1 (p21^WAF1) in both cells
same,levels of cyclin D1,cyclin D1,Decrease in the levels of cyclin D1 occurred in MG-63
same,PARP cleavage,[2],showed cleavage of the precursor molecules in both cells
same,initial weight loss,[3]; HD-CuB 1.0 mg/kg,up to 5%
same,initial weight loss,[3]; LD-CuB 0.5 mg/kg,up to 5%
same,protection of mTOR protein from thermolysin proteolysis (DARTS),mTOR,dose-dependent protection of mTOR protein from thermolysin proteolysis
